Structures are written as SMILES. Like-named read-outs stand apart in the source and are kept apart here.

The term IC50 denotes the concentration that gives 50% inhibition.

The target in data set [1] is T1, CYP2C8 (Homo sapiens, UniProt P10632).
T1 construct: pre-incubation of the human liver microsomes with the test compound; tissue Corning; host or cells: human liver microsomes
T1 sequence (P10632 1-490): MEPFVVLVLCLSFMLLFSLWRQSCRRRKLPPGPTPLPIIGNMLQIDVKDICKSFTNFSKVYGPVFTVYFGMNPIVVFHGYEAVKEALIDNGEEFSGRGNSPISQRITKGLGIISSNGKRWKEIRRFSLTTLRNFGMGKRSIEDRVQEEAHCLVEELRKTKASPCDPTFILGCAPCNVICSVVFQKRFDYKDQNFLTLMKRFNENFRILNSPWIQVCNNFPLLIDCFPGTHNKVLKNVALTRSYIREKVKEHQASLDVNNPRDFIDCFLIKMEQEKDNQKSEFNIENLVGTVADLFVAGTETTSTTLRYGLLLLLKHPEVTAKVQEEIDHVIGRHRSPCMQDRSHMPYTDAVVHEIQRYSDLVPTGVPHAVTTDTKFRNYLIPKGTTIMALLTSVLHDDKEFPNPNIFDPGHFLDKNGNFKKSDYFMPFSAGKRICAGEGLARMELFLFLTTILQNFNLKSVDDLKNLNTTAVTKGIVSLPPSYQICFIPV
Kind of data set: CYP inhibition / time-dependent inhibition, CYP2C8_Amodiaquine. The conditions noted are these: role: inhibitor. The data set is classed as in vitro ADME. The procedure:
The time-dependent inactivation potency of the test compound to CYP enzymatic activities was assessed by the pre-incubation of the human liver microsomes with the test compound in the presence and absence of NADPH, followed by the incubation with the discrete marker substrates, as follows.
Pre-incubation with human liver microsomes (HLMs): The TDI inactivation potency on CYP enzymatic activities was evaluated through pre-incubation with HLMs (Corning). A liver microsome mixture at a concentration of 0.1 mg/mL, and the test compound at 8 different concentrations (0, 0.05, 0.165, 0.5, 1.65, 5.0, 16.5, or 50.0 μM) was warmed at 37° C. for 10 minutes. Concurrently, a set of known time-dependent inactivators was also prepared in duplicate for comparison. Following this, NADPH (1.0 mM) was added to one group (Group 1), and an equal volume of potassium phosphate buffer to the second group (Group 2), marking the beginning of a 30-minute pre-incubation at 37° C.
Incubation: After pre-incubation, the marker substrate, or marker substrate plus NADPH was added to the mixture, thereby initiating the incubation. The duration of the incubation was dependent on the type of CYP isoform being evaluated. For example, with the CYP3A isoform, the mixture was incubated over 3 minutes utilizing midazolam as the marker substrate (2.0 μM), verapamil as the standard inactivator (3.5 μM).
Termination of Reaction: Following the incubation, ice-cooled acetonitrile containing the internal standard (IS) was added to halt the reactions. Metabolites generated from the marker substrates were then measured via LC-MS/MS, assessed based on peak area ratios of the analyte to IS.

The target in data set [2] is T2, muscarinic m2 receptor (Homo sapiens, UniProt P08172).
T2 construct: Eurofins DiscoverX, USA
T2 sequence (P08172 whole entry): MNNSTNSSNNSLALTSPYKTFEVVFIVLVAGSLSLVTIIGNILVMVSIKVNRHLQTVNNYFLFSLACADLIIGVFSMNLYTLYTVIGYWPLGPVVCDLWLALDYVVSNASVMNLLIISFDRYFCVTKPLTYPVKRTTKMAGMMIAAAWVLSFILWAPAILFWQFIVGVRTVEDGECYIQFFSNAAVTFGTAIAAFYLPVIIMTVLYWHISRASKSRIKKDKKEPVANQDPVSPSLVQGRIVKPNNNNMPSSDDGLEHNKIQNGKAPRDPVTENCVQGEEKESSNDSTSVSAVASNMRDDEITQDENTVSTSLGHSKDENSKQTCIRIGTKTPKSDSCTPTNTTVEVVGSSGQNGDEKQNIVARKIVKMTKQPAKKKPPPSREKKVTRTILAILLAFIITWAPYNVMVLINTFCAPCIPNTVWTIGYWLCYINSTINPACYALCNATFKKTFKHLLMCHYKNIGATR
Kind of data set: Functional selectivity panel, muscarinic m2 receptor. The data set is classed as biochemical. The procedure: (§1) A broad panel of 78 recombinant targets was tested for pharmacologic activity in vitro through a variety of functional assays (Eurofins DiscoverX, USA), as part of the National Institute of Neurological Disorders and Stroke (NINDS) Preclinical Screening Platform for Pain (PSPP) program. The biological targets for the in vitro profiling have been selected based on avoiding opioid receptor stimulation and targets known to be associated with adverse events or targeted by drugs of abuse. […] For each test, a reference compound was evaluated at the target of interest as a positive control.

The subject of data set [3] is 78 recombinant targets. Description: In-vitro selectivity panel, 78 targets. To be noted: all 9 modulated targets of 78. The procedure:
as §1
In addition, based on efficacious exposures in vivo, the separation from other targets is still greater than 1000-fold, further supporting the specificity of the compound's MOA.

The target in data set [4] is T3, hKv7.2/3 (Homo sapiens, UniProt O43525+O43526).
T3 construct: host or cells: CHO
T3 sequence (O43525 whole entry): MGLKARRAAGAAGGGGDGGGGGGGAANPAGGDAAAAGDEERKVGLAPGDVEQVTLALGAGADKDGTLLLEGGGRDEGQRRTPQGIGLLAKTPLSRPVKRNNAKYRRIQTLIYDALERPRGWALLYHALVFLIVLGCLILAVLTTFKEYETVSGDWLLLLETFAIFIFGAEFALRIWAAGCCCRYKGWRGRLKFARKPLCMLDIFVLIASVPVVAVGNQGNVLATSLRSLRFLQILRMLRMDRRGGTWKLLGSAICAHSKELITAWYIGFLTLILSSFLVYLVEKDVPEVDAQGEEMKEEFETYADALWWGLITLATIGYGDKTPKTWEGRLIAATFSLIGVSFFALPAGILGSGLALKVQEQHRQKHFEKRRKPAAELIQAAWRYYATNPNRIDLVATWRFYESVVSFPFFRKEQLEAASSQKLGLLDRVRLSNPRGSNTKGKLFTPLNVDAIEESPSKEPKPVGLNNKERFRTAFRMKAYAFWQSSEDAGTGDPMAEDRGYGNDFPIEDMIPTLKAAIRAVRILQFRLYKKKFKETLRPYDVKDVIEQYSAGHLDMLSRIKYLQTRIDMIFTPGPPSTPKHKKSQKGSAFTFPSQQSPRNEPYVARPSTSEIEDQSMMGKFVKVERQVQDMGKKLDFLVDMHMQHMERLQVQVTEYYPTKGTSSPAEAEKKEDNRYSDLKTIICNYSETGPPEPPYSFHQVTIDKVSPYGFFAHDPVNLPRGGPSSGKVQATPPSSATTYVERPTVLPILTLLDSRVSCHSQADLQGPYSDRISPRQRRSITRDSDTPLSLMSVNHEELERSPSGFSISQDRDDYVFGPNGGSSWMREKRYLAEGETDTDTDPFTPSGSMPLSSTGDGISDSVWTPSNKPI
T3 sequence (O43526 whole entry): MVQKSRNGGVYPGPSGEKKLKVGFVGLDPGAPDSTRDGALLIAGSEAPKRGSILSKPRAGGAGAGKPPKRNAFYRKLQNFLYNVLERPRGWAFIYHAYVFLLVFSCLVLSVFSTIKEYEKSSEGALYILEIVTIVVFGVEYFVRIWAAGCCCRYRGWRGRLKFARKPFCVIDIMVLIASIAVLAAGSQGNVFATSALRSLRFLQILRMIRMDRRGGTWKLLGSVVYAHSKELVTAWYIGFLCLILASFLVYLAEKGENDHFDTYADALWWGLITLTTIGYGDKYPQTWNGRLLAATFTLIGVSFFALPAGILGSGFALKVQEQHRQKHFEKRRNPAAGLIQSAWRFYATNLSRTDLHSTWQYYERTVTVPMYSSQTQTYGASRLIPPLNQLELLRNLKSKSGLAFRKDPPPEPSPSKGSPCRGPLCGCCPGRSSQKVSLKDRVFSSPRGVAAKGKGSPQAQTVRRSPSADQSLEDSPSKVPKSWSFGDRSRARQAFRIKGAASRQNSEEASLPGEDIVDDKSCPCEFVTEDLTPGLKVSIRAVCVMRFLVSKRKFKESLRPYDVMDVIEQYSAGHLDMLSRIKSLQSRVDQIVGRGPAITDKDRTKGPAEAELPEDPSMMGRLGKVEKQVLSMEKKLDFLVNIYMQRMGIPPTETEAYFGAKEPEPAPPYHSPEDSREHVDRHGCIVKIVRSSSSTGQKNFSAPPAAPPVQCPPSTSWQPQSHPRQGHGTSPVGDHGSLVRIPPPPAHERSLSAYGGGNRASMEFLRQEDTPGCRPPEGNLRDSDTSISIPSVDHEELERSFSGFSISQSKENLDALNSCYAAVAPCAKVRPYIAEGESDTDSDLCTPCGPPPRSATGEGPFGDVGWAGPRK
Kind of data set: Kv7.2/7.3 whole-cell electrophysiology in CHO cells. The data set is classed as cell-based. The conditions noted are these: 100 nM, −40 mV, N=4, read-out: Kv7.2/3 current activation. The text has this:
Extracellular (Bath) solution: The solution was composed of (in mM): NaCl, 140; KCl, 4; CaCl2, 1.8; MgCl2, 1.2; Glucose, 11; HEPES, 5.5. pH was adjusted to 7.3 with NaOH. Osmolarity was adjusted to 310 mOsm with Sucrose.
Intracellular (Pipette) solution: Pipettes were pulled from borosilicate glass (Warner Instrument Corp, USA) with a resistance of 3-7 MΩ and were filled with internal solution composed of (in mM): KCl, 130; MgCl2, 1; K ATP, 5; EGTA, 5 (replaced by BAPTA in rat DRG neurons recordings); HEPES, 10. pH was adjusted to 7.3 with KOH. Osmolarity was adjusted to 290 mOsm with Sucrose.
A programmable valve-linked pressurized perfusion system (AutoMate Scientific) was used for local application of compounds nearby the cell recorded in a consistent flow rate of 2-3 ml/min. Series resistance was corrected and data were sampled at 5 kHz and low pass filtered at 2.4 kHz using MultiClamp 700B amplifier with pCLAMP11 software (Molecular Devices, USA). […]
The current obtained at −40 mV membrane potential when test compound is injected is divided by the averaged current at −40 mV, recorded before test-compound application and following its washout, to evaluate the drug/control response.

Data set [5] has as its target hERG (Homo sapiens, UniProt Q12809). Description: Functional selectivity panel, hERG. The conditions noted are these: up to 10 micromolar. The data set is classed as biochemical. On the set-up: Eurofins DiscoverX functional panel cells. The procedure:
as §1
(The hERG channel carries a current that helps repolarise heart muscle cells.)

Data set [6] has as its target OCT2 (Homo sapiens, UniProt O15244). Description: Transporter substrate, OCT2. The class given is in vitro ADME. To be noted: role: substrate. The method, then: (§2) Additionally, compound 760 was tested for its capability to act as a transporter substrate for various transporters, and was not found to be a transporter substrate for any of the tested transporters.
Data set [7] has as its system MATE1. Description: Transporter substrate, MATE1. The class given is in vitro ADME. The conditions noted are these: role: substrate. The procedure: as §2
The target of data set [8] is OAT1 (Homo sapiens, UniProt Q4U2R8). Kind of data set: Transporter substrate, OAT1. The data set is classed as in vitro ADME. The conditions noted are these: role: substrate. The method, then: as §2
Chain of OAT1 (Q4U2R8 whole entry): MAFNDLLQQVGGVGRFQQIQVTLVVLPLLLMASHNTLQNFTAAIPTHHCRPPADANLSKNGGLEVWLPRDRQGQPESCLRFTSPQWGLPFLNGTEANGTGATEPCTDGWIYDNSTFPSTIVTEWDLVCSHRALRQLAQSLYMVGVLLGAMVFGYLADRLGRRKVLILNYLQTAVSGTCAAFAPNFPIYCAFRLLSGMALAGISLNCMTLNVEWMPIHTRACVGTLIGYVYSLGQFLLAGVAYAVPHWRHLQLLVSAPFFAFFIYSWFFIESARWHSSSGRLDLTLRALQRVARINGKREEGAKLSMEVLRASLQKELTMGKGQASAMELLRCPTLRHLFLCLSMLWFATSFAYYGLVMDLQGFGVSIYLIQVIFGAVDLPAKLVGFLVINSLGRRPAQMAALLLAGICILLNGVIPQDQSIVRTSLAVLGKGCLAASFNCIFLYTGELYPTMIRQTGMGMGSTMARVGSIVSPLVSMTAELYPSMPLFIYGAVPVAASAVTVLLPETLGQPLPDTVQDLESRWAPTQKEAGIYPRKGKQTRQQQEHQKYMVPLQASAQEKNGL

Chain of OCT2 (O15244 whole entry): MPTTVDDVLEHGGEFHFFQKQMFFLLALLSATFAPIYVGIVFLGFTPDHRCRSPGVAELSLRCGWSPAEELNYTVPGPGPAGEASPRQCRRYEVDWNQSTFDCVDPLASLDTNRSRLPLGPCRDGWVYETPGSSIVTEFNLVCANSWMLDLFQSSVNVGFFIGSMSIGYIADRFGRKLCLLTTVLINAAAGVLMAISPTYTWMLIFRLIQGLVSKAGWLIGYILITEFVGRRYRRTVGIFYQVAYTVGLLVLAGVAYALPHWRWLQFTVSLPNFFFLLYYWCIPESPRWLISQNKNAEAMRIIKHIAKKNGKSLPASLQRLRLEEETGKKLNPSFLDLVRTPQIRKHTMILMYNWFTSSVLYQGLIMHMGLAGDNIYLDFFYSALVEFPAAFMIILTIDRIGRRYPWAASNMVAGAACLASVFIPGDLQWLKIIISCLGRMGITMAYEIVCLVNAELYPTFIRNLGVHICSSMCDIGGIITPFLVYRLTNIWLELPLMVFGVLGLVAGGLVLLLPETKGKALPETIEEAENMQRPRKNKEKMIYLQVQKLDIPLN
Chain of hERG (Q12809 whole entry): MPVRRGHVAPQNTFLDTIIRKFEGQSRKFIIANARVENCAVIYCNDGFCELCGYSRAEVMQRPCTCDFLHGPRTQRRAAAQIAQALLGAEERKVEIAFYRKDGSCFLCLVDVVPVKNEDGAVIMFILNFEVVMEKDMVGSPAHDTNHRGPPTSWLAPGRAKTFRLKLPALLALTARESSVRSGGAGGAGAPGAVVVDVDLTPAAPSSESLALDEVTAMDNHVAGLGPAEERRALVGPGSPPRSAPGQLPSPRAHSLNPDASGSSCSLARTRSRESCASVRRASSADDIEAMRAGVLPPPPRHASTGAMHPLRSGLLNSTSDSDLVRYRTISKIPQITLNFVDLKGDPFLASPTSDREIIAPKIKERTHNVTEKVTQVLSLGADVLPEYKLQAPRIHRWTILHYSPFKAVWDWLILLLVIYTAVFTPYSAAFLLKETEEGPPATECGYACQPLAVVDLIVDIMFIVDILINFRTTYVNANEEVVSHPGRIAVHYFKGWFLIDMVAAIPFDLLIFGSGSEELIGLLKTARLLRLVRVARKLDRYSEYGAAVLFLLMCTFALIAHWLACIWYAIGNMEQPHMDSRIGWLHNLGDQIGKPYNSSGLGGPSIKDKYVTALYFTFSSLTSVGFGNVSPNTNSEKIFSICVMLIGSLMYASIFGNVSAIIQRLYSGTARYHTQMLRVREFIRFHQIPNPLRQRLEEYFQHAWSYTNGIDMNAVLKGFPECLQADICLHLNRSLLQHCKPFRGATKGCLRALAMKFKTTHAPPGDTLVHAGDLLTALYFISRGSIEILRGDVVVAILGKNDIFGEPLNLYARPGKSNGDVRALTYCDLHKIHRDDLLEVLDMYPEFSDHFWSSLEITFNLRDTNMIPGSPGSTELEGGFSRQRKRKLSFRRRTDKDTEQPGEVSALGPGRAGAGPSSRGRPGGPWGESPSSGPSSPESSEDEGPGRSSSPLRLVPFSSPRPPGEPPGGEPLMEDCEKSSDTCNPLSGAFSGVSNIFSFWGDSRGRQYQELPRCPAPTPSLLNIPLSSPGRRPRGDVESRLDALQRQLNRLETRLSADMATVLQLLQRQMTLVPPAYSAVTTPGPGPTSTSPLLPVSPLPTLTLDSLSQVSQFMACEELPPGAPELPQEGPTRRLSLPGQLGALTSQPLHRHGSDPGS

Consider `O=C(Cc1cncc(-n2cc(Cl)c3cc(Cl)cc(Cl)c32)c1)N[C@@H]1COC[C@H]1O` [Compound 661], for which the half-inhibitory concentration (IC50) was 16.5 µM in data set [1] ((+)NADPH pre-incubation, substrate amodiaquine, read-out: IC50 (+)NADPH CYP2C8_Amodiaquine); 14.3 µM in data set [1] ((−)NADPH pre-incubation, substrate amodiaquine, read-out: IC50 (−)NADPH CYP2C8_Amodiaquine); 5 µM in data set [2]; greater than 1.4 µM in data set [3].
As for `O=C(Cc1cc(-n2cc(Cl)c3cc(Cl)cc(Cl)c32)ccc1F)NCCO` [Compound 627], in data set [4], the activation at 0.1 µM is 24.4 ± 10.4%.
As to `O=C(Cc1nccc(-n2cc(Cl)c3cc(Cl)cc(Cl)c32)n1)NC1COCC1O` (stereo not shown) [Compound 760], the “Effect on hERG” value in data set [5] is reported as “no effect”. Further, the OCT2 substrate entry in data set [6] is “not a transporter substrate”. The IC50 in data set [1] (Table 9, read-out: CYP inhibition IC50 CYP2C8) was 49.2 µM. Moreover, the MATE1 substrate result in data set [7] was “not a transporter substrate”. The OAT1 substrate entry in data set [8] is listed as “not a transporter substrate”.

Values taken from patent publication US20260327211A1, “MODULATORS OF A POTASSIUM CHANNEL AND OF TRPV1 CHANNEL AND USES THEREOF” (Bsense Bio Therapeutics Ltd., priority 2023, published 2026).
